Laboratory results as given in patent US20250320205A1, “STAT6 DEGRADERS” (Gilead Sciences, Inc., priority 2024, published 2025).

What follows are compounds tested against T1, STAT6 (Homo sapiens, UniProt P42226) (assay: STAT6 Degrader Assay (HiBiT based, HeLa LgBiT clone 4.14 cells)). Conditions: HeLa; maximal STAT6 degradation.
T1 construct: These cells express endogenous STAT6; host or cells: HeLa LgBiT clone 4.14 (CRISPR knock-in of HiBiT into the endogenous STAT6 gene)
T1 sequence (P42226 1-847): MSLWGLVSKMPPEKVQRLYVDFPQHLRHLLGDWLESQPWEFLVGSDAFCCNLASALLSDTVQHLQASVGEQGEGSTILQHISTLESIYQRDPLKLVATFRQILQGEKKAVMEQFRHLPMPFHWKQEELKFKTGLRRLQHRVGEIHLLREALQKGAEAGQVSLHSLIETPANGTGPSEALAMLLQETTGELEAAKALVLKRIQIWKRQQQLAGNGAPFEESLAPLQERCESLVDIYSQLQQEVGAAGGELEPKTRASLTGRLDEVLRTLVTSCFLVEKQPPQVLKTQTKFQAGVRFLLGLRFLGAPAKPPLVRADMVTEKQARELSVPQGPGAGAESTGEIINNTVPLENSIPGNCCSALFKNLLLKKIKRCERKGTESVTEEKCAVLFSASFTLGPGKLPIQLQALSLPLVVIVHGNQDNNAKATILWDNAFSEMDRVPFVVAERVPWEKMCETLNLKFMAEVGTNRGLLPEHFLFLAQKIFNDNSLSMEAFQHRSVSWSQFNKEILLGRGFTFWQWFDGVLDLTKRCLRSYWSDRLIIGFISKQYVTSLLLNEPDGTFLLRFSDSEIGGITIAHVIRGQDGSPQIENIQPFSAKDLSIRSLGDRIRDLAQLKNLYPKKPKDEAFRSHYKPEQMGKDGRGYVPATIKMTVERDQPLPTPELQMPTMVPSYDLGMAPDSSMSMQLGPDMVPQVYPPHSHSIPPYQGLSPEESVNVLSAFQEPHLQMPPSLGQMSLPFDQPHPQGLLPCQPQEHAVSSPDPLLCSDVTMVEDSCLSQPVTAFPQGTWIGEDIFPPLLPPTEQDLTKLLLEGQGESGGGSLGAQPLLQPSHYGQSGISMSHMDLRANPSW
Format: cell-based
Protocol: This was a HiBit based assay. A HeLa cell line stably transfected with a small protein, LgBit (Large Bit) was obtained from Promega. These cells express endogenous STAT6. A small 11 amino acid gene sequence (HiBiT) was inserted in the STAT6 gene using CRISPR technology. Once STAT6 protein is expressed in the cells, the HiBiT sequence will bind the LgBit in the cells resulting in a functional NanoBiT protein, giving a luminescent tag to STAT6. Single cell clones were prepared and the clone 4.14 was selected for the assay based on that clone showing high luminescence, high STAT6 phosphorylation upon stimulation with IL-4, and inhibition of luminescence when cells were treated with STAT6 siRNA. HeLa LgBiT clone 4.14 cells were suspended in DMEM with 10% FCS, 1% Pen/Strep, Na-pyrovate and Hygromycin B, at a concentration of 1.25*105 cells pr mL. 5000 cells were added pr well of a 384 well plate and 20 nL of compound was added by Echo® liquid handler. NN6394A (terfenadine, a toxic compound) was added to control wells at 50 μM concentration to establish the assay window. In these wells the cells are dead which equals 100% degradation of STAT6. After 4-24 h of incubation at 37° C. under 5% CO2/95% air, 5 μL substrate (Nano-GLO®) was added to the wells and the plates were centrifuged and incubated for 0.5 h. The luminescence in the wells as a measure of non-degraded STAT6 was measured in a plate reader (BMG Pherastar FSX). The measured DC50 (in nM) was determined.

Row | Emax [%] | SMILES
1 | 40 to 50 | CNc1ccn(-c2ccnc3c2cc(CN2CCC(c4c(C)cc(C(=O)N5CCN(C(=O)CN6CCN(c7ccc(NC8CCC(=O)NC8=O)cc7F)CC6)CC5)cc4F)CC2)n3C)c(=O)c1 (centres unmarked) [Example 2g132, 3-((3-fluoro-4-(4-(2-(4-(3-fluoro-5-methyl-4-(1-((1-methyl-4-(4-(methylamino)-2-oxopyridin-1(2H)-yl)-1H-pyrrolo[2,3-b]pyridin-2-yl)-methyl)piperidin-4-yl)benzo-yl)piperazin-1-yl)-2-oxo-ethyl)piperazin-1-yl)phenyl)-amino)piperidine-2,6-dione]
2 | 70 to 80 | CNc1ccn(-c2ccnc3c2cc(CN2CC=C(c4c(C)cc(C(=O)N5CCC(CN6CCN(c7ccc(N[C@H]8CCC(=O)NC8=O)cc7F)CC6)CC5)cc4F)CC2)n3C)c(=O)c1 (single isomer, unassigned) [Example 2g55]
3 | 70 to 80 | CNc1ccn(-c2ccnc3c2cc(CN2CC=C(c4c(C)cc(C(=O)N5CCC(CN6CCN(c7ccc(N[C@@H]8CCC(=O)NC8=O)cc7F)CC6)CC5)cc4F)CC2)n3C)c(=O)c1 (single isomer, unassigned) [Example 2g56]
4 | 60 to 70 | Cc1cc(C(=O)N(C)c2ccc(C3CCN(c4ccc(NC5CCC(=O)NC5=O)cc4F)CC3)cc2)cc(F)c1C1=CCN([C@H](C)c2cc3c(-n4ccc5[nH]ncc5c4=O)ccnc3n2C)CC1 (stereo partly drawn) [Example 2g133, N-(4-(1-(4-((2,6-dioxopiperi-din-3-yl)amino)-2-fluoro-phenyl)piperidin-4-yl)phen-yl)-3-fluoro-N,5-dimethyl-4-(1-((R)-1-(1-methyl-4-(4-oxo-1,4-dihydro-5H-pyrazolo[4,3-c]pyridin-5-yl)-1H-pyrrolo [2,3-b]pyridin-2-yl)ethyl)-1,2,3,6-tetrahydropyridin-4-yl)benzamide]
5 | 50 to 60 | Cc1cc(C(=O)N(C)c2ccc(C3CCN(c4ccc(NC5CCC(=O)NC5=O)cc4F)CC3)cc2)cc(F)c1C1=CCN([C@H](C)c2cc3c(-n4ccc5[nH]ccc5c4=O)ccnc3n2C)CC1 (stereo partly drawn) [Example 2g134, N-(4-(1-(4-((2,6-dioxopiper-idin-3-yl)amino)-2-fluoro-phenyl)piperidin-4-yl)phen-yl)-3-fluoro-N,5-dimethyl-4-(1-((R)-1-(1-methyl-4-(4-oxo-1,4-dihydro-5H-pyrrolo[3,2-c]pyridin-5-yl)-1H-pyrrolo [2,3-b]pyridin-2-yl)ethyl)-1,2,3,6-tetrahydropyridin-4-yl)benzamide]
6 | < 20 | CNc1ccn(-c2ccnc3c2cc(CN2CCC(c4c(C)cc(C(=O)N5CCC(CN6CCN(c7ccc(NC8CCC(=O)NC8=O)cc7F)CC6)CC5)cc4F)CC2)n3C)c(=O)c1 (centres unmarked) [Example 2g60, 3-((3-fluoro-4-(4-((1-(3-fluoro-5-methyl-4-(1-((1-methyl-4-(4-(methylamino)-2-oxopyridin-1(2H)-yl)-1H-pyrrolo[2,3-b]pyridin-2-yl)-methyl)piperidin-4-yl)benzo-yl)piperidin-4-yl)methyl)-piperazin-1-yl)phenyl)amino)-piperidine-2,6-dione]

Same assay, conditions: geometric mean across assay runs and compound batches; DC50 provided for test compounds with >80% Emax; read-out: STAT6 degradation DC50

Row | SMILES | DC50 [nM]
7 | CNc1ccn(-c2ccnc3c2cc([C@H](C)N2CC=C(c4c(C)cc(C(=O)N5CCC(CN6CCN(c7ccc(N[C@@H]8CCC(=O)NC8=O)cc7F)CC6)CC5)cc4F)CC2)n3C)c(=O)c1 (single isomer, unassigned) [Example 2g38] | 2.4
8 | CNc1ccn(-c2ccnc3c2cc([C@H](C)N2CC=C(c4c(C)cc(C(=O)N5CCn6nc(CN7CCC(c8ccc(N[C@@H]9CCC(=O)NC9=O)cc8F)CC7)cc6C5)cc4F)CC2)n3C)c(=O)c1 (single isomer, unassigned) [Example 2g17] | 0.2
9 | CNc1cc(=O)n(-c2ccnc3c2cc([C@H](C)N2CC=C(c4c(C)cc(C(=O)N5CCC(CN6CCN(c7ccc(N[C@@H]8CCC(=O)NC8=O)cc7F)C[C@H]6C)CC5)cc4F)CC2)n3C)cc1F (single isomer, unassigned) [Example 2g28] | 10.3
10 | CNc1ccn(-c2ccnc3c2cc([C@H](C)N2CC=C(c4c(C)cc(C(=O)N5CCC(CN6CCN(c7ccc(N[C@@H]8CCC(=O)NC8=O)cc7F)C[C@H]6C)CC5)cc4F)CC2)n3C)c(=O)c1 (single isomer, unassigned) [Example 2g47] | 3.3
11 | CNc1cc(=O)n(-c2ccnc3c2cc([C@H](C)N2CC=C(c4c(C)cc(C(=O)N5CCC(CN6CCN(c7ccc(N[C@H]8CCC(=O)NC8=O)cc7F)C[C@H]6C)CC5)cc4F)CC2)n3C)cc1F (single isomer, unassigned) [Example 2g29] | 3.6
12 | Cc1cc(C(=O)N2CCC(CN3CCN(c4ccc(N[C@H]5CCC(=O)NC5=O)cc4F)C[C@H]3C)CC2)cc(F)c1C1=CCN([C@@H](C)c2cc3c(-n4ccc5c(c4=O)CCN5)ccnc3n2C)CC1 (single isomer, unassigned) [Example 2g23] | 3.3
13 | Cc1cc(C(=O)N2CCC(CN3CCN(c4ccc(N[C@H]5CCC(=O)NC5=O)cc4F)CC3)CC2)cc(F)c1C1=CCN([C@@H](C)c2cc3c(-n4ccc5c(c4=O)CCN5)ccnc3n2C)CC1 (single isomer, unassigned) [Example 2g19] | 4.5
14 | CNc1ccn(-c2ccnc3c2cc([C@H](C)N2CCC(c4c(C)cc(C(=O)N5CCC(CN6CCN(c7ccc(N[C@@H]8CCC(=O)NC8=O)cc7F)CC6)CC5)cc4F)CC2)n3C)c(=O)c1 (single isomer, unassigned) [Example 2g44] | 12.2
15 | COc1cc(C2CCN(Cc3cc4n(n3)CCN(C(=O)c3ccc(C5CCN([C@@H](C)c6cc7c(-n8ccc9c(c8=O)CCN9)ccnc7n6C)CC5)cc3)C4)CC2)ccc1NC1CCC(=O)NC1=O (stereo partly drawn) [Example 2g30, 3-((2-methoxy-4-(1-((5-(4-(1-((S)-1-(1-methyl-4-(4-oxo-1,2,3,4-tetrahydro-5H-pyrrolo [3,2-c]pyridin-5-yl)-1H-pyrrolo[2,3-b]pyridin-2-yl)-ethyl)piperidin-4-yl)benzoyl)-4,5,6,7-tetrahydropyrazolo [1,5-a]pyrazin-2-yl)methyl)-piperidin-4-yl)phenyl)amino)-piperidine-2,6-dione] | 2.6
16 | CNc1cc(=O)n(-c2ccnc3c2cc([C@H](C)N2CC=C(c4c(C)cc(C(=O)N5CCC(CN6CCN(c7ccc(NC8CCC(=O)NC8=O)cc7F)C[C@H]6C)CC5)cc4F)CC2)n3C)cc1F (stereo partly drawn) [Example 2g27, 3-((3-fluoro-4-((R)-4-((1-(3-fluoro-4-(1-((S)-1-(4-(5-fluoro-4-(methylamino)-2-oxopyridin-1(2H)-yl)-1-meth-yl-1H-pyrrolo[2,3-b]pyridin-2-yl)ethyl)-1,2,3,6-tetrahydro-pyridin-4-yl)-5-methylbenz-oyl)piperidin-4-yl)methyl)-3-methylpiperazin-1-yl)phenyl)-amino)piperidine-2,6-dione] | 4.2

Next, values leading:

Row | DC50 [nM] | SMILES
17 | 7.2 | CNc1cc(=O)n(-c2ccnc3c2cc([C@H](C)N2CC=C(c4c(C)cc(C(=O)N5CCC(CN6CCN(c7ccc(N[C@@H]8CCC(=O)NC8=O)cc7F)CC6)CC5)cc4F)CC2)n3C)cc1F (single isomer, unassigned) [Example 2g93]
18 | 2.4 | CNc1ccn(-c2ccnc3c2cc([C@H](C)N2CC=C(c4c(C)cc(C(=O)N5CCC(CN6CCN(c7ccc(N[C@H]8CCC(=O)NC8=O)cc7F)C[C@H]6C)CC5)cc4F)CC2)n3C)c(=O)c1 (single isomer, unassigned) [Example 2g48]
19 | 18 | CNc1ccn(-c2ccnc3c2cc(CN2CCC(c4c(C)cc(C(=O)N5CCC(CN6CCN(c7ccc(N[C@H]8CCC(=O)NC8=O)cc7F)CC6)CC5)cc4F)CC2)n3C)c(=O)c1 (single isomer, unassigned) [Example 2g62]
20 | 11 | CNc1ccn(-c2ccnc3c2cc([C@H](C)N2CC=C(c4c(C)cc(C(=O)N5CCC(CN6CCN(c7ncc(N[C@H]8CCC(=O)NC8=O)cc7F)C[C@@H]6C)CC5)cc4F)CC2)n3C)c(=O)c1 (single isomer, unassigned) [Example 2g95]
